# Source: patent publication US8530183B2, “Zinc sensors for cellular imaging” (The Board of Regents of the University of Texas System, priority 2010, dated 2013)
# Entries after “also recorded” stand apart in the source; their conditions may differ.
# How the values were obtained:
# MIN6 cells = experiment: Cellular uptake and membrane labeling followed by confocal laser scanning microscopy; type: cell-based, mouse
# Method: FIGS. 4A-F. ZIMIR labels plasma membranes of intact living cells rapidly, non-invasively and stably. ZIMIR (1 μM) was added to MIN6 cells in FIBS buffer (containing ˜1 μM Zn^2+ enhance fluorescence intensity). Confocal images (Ex 488 nm, Em 510-550 nm) were subsequently acquired at 2 min (FIG. 4A), 5 min (FIG. 4B), 10 min (FIG. 4C), and 20 min (FIG. 4D). Cells were then washed with FIBS buffer three times and imaged again at 21 min (FIG. 4E), and 140 min (FIG. 4F).
# Cell culture and ZIMIR imaging by wide field fluorescence microscopy. Details of cell culture are described below. For cell imaging, we cultured cells in 35 mm petri dishes with glass-bottoms (MatTek, Ashland, Mass.). To label cells with ZIMIR, cells were washed with a Secretion Assay Buffer (SAB) containing 114 mM NaCl, 4.7 mM KCl, 1.2 mM KH2PO4, 2.5 mM CaCl2, 1.16 mM MgSO4, 3 mM glucose, and 20 mM HEPES (pH 7.4). The DMSO stock solution of ZIMIR. (1-2 mM) diluted in a small volume of SAB was added to cells to a final concentration of 1 μM. Cells were then incubated at ˜25° C. for 20 min and washed with SAB before imaging. To image insulin/Zn^2+ secretion, we routinely included 10 μM of EDTA in SAB to chelate the residual Zn^2+ and to reduce the baseline fluorescence. In addition, DPAS (2-4 μM) was added to SAB in some experiments to better resolve the dynamics of oscillatory insulin release.
# ZIMIR uptake and Zn2+ response in live cells. To examine the cellular uptake of ZIMIR, the inventors used a mouse insulinoma cell line, MIN6 (Miyazaki et al., 1990). When ZIMIR was incubated with cells at 1 μM concentration, it rapidly adhered to the cell surface of intact living cells (data not shown). In order to test the specificity and stability of membrane labeling, the inventors used confocal laser scanning microscopy (CLSM) to follow the cellular uptake and distribution of ZIMIR in MIN6 cells (FIGS. 4A-F). Within 5 min after probe addition, there was already a clear accumulation of ZIMIR along the plasma membrane (FIGS. 4A-B). By 20 min, the cellular uptake of ZIMIR appeared to reach completion (FIGS. 4C-D). […]
# cultured mammalian cells = experiment: Growth rate of ZIMIR-labeled cells versus unlabeled cells (cytotoxicity); type: cell-based; conditions: over the next several days after labeling
# pancreatic islets = experiment: Confocal imaging of dye uptake and insulin/Zn2+ release in pancreatic islets; type: cell-based, mouse
# Method: FIGS. 8A-C. Imaging insulin/Zn^2+ release in islets by confocal laser scanning microscopy. (FIGS. 8A-B) Confocal images of mouse islets labeled with ZIMIR (FIG. 8A) or calcein/AM (FIG. 8B). (FIG. 8C) Confocal ZIMIR imaging of insulin/Zn^2+ release in a mouse islet bathed in SAB. Images from two example layers 15 μm apart before and 10 sec post KCl (40 mM) stimulation were shown.
# FIG. 11. ZIMIR rapidly labels cells of intact human islets. Representative CLSM images of a ZIMIR labeled human islet at three focal planes 20 μm apart.
# Islets labeling and ZIMIR imaging by confocal laser scanning microscopy. Experiments with rodent animals were carried out according to protocols approved by the Institutional Animal Care and Use Committee of University of Texas Southwestern Medical Center. Rodent islets were isolated from Sprague-Dawley rats or C57BL/6 mice after digesting exocrine tissues of pancreas using collagenase as described below. To image insulin release in islets, the inventors labeled islets with ZIMIR (final concentration 2 μM with 0.025% Pluronic) in SAB buffer for […]. Labeled islets were then transferred to an imaging dish that had been coated with 0.5% PuraMatrix peptide hydrogel (BD Biosciences, Cat # 354250). Islets adhered to the PuraMatrix hydrogel within 5 min. They then imaged ZIMIR fluorescence by confocal laser scanning microscopy using a LSM510 imaging system (Carl Zeiss) and a 40× oil immersion objective (Dakin and Li, 2007).
# Confocal imaging of ZIMIR uptake and insulin/Zn^2+ release in pancreatic islets. In addition to cultured cells, ZIMIR also rapidly and noninvasively labels cells in preparations such as dissected pancreatic islets. After loading islets with ZIMIR (2 μM) for 25 min, the inventors applied CLSM to track the distribution of ZIMIR in three dimensions (3D). […] The result confirmed that ZIMIR readily diffused through the interstitial space to reach interior cells, whereas calcein/AM was trapped by cells in the outer layer, unable to penetrate any deeper. After labeling, the inventors depolarized cells with high concentration of KCl.
smiles,measurement,setting,value
CCCCCCCCCCCCN(CC(=O)O)Cc1c2oc3c(CN(CCCCCCCCCCCC)CC(=O)O)c(O)ccc3c(-c3cc(NCCN(CCc4ccccn4)Cc4ccccn4)ccc3C(=O)O)c-2ccc1=O [ZIMIR],time to clear accumulation along the plasma membrane,"MIN6 cells; 1 μM ZIMIR, MIN6 cells, CLSM",≤ 5 min
same,time to completion of cellular uptake,"MIN6 cells; 1 μM ZIMIR, MIN6 cells, CLSM",≤ 20 min
same,membrane retention upon washing,MIN6 cells; repetitive washings after labeling,did not change membrane fluorescence intensity
same,growth rate of labeled cells / cytotoxicity,cultured mammalian cells,same growth rate as unlabeled cells; also recorded: very little cytotoxicity
same,"distribution of dye in islets (3D, CLSM)","pancreatic islets; ZIMIR 2 μM for 25 min, mouse and human islets","taken up by cells throughout the islets, from the mantle to the core"
same,ZIMIR fluorescence change in islets upon KCl depolarization,"pancreatic islets; mouse islet, high concentration of KCl (40 mM)",robust and synchronized enhancement of ZIMIR fluorescence
